Legend:
[1] = 101 kPa, Liquid; for viscosity: Capillary tube (Ostwald / Ubbelohde) method
[2] = refractive index (Na D-line) (dimensionless); conditions: 101.33 kPa, Liquid, Standard Abbe refractometry
[3] = xn = mol fraction of the nth substance listed; conditions: 101 kPa, Liquid, x2 = 0; for viscosity: Capillary tube (Ostwald / Ubbelohde) method
[4] = refractive index (Na D-line) (dimensionless); xn = mol fraction of the nth substance listed; conditions: 101 kPa, Liquid, Standard Abbe refractometry, x2 = 0

NCCNCCO [N-(2-aminoethyl)ethanolamine]
Conditions | mass density, [1] [kg/m3] | refractive index, [2] | viscosity, [1] [mPa·s]
298.15 K | 1025.28 | 1.48454 | 98.6
303.15 K | 1021.53 | 1.48269 | 70.5
313.15 K | 1014.02 | 1.47884 | 39.4
323.15 K | 1006.44 | 1.47516 | 23.4
333.15 K | 998.83 | 1.47128 | 14.8
343.15 K | 991.15 | – | 10.1

O [water] + NCCNCCO
Conditions | mass density, [3] [kg/m3] | refractive index, [4] | viscosity, [3] [mPa·s]
298.15 K | – | 1.33258 | 0.882
303.15 K | – | 1.33202 | 0.804
313.15 K | – | 1.33067 | 0.659
323.15 K | 988.03 | 1.32909 | 0.551
333.15 K | 983.19 | 1.3273 | 0.47
343.15 K | 977.75 | – | 0.407

From the NIST ThermoML archive (doi:10.1021/je060032n)
